Laboratory results reported in PMC7729925, “Selective hepatitis B and D virus entry inhibitors from the group of pentacyclic lupane-type betulin-derived triterpenoids” (Scientific Reports, 2020).
Where “and” joins values, the source holds several entries; their conditions need not be identical. Equal entries are not always repeated.

Experiments:
NTCP [1] = biological target: T1, NTCP (Homo sapiens, UniProt Q14973); test: [3H]preS1 (myr-preS1_2-48 lipopeptide) binding inhibition in NTCP-HEK293 cells; settings: for IC50: NTCP-HEK293 cells; for Selectivity index: ratio of mean IC50 [3H]TC transport inhibition / IC50 [3H]preS1 binding inhibition
T1 construct: expressed in transfected cells
T1 sequence (Q14973 1-349): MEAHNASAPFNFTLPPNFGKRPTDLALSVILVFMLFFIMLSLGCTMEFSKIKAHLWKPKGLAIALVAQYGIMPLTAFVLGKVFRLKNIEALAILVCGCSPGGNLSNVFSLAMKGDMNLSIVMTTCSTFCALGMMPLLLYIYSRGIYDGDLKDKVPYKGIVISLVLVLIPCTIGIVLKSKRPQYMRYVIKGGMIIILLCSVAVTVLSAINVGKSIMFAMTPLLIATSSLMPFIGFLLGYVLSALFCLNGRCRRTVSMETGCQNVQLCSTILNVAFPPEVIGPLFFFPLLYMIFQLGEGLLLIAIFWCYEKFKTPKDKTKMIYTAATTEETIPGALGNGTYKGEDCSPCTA
Experimental: (§1) The major goal of the present study was to analyze in parallel the effect of inhibitors on both, bile acid transport via NTCP and myr-preS1_2-48 lipopeptide binding to NTCP in a cell culture system. […] NTCP-HEK293 cells were seeded onto 96-well plates and were incubated with tetracycline in order to induce expression of the human NTCP protein. […] Experiments were performed with solvent alone (set to 100%) and with increasing concentrations of the indicated inhibitors. […] Half maximal inhibitory concentrations (IC50) were calculated by nonlinear regression analysis using the equation log(inhibitor) versus response (GraphPad Prism). […] Data represent means ± SD of quadruplicate determinations of representative experiments. […] In parallel, [^3H]preS1 peptide binding experiments were performed with a tritium-labelled myr-preS1_2-48 lipopeptide -HBV subgenotype D3- that was purchased from Pharmaron (120 Ci/mmol, 1 mCi/ml, Cardiff, UK). […] Experiments were stopped after 10 min by two-times washing with ice-cold PBS. For 0% uptake/binding control, the NTCP-HEK293 cells were not induced with tetracycline (-tet). […] Transport rates and [^3H]preS1 binding were determined in counts per minute (cpm). […] IC50 values were calculated from quadruplicate determinations by GraphPad Prism 6 (GraphPad, San Diego, CA, USA).

NTCP [2] = biological target: T1, NTCP; test: [3H]TC transport (bile acid uptake) inhibition in NTCP-HEK293 cells; type: cell-based; settings: for [3H]TC transport inhibition (in words): 0.1–1,000 µM
Experimental: as §1

[3] = IC50 ([3H]preS1 binding), 95% confidence interval, inhibition of 5 nM [3H]preS1 binding, 10 min, 37 °C
[4] = 95% confidence interval, inhibition of 1 µM [3H]TC uptake, NTCP-HEK293 cells, 10 min, 37 °C, read-out: IC50 ([3H]TC uptake)
[5] = 95% confidence interval, inhibition of 5 nM [3H]preS1 binding, 10 min, 37 °C, read-out: IC50 ([3H]preS1 binding)
[6] = mean IC50, 5 nM [3H]preS1, standard pH 7.4, read-out: IC50 [3H]preS1 binding inhibition
[7] = mean IC50, […] µM [3H]TC, NTCP-HEK293 cells, standard pH 7.4, read-out: IC50 [3H]TC transport inhibition

| Compound | IC50 (NTCP [2]; [4]) [µM] | IC50 (NTCP [1]; [5]) [µM] | IC50 (NTCP [1]; [6]) | Selectivity index (NTCP [1]) | other results |
| --- | --- | --- | --- | --- | --- |
| C=C(C)[C@@H]1CC[C@]2(C)CC[C@]3(C)[C@H](CC[C@@H]4[C@@]5(C)CC[C@H](O)C(C)(C)[C@@H]5CC[C@]43C)[C@@H]12 [Compound 3, Lupeol] | > 1000 | – | – | – | IC50 (NTCP [1]; [3]): 26.9 to 97.9 µM; IC50 (NTCP [2]): > 1000 µM |
| C=C(C)[C@@H]1CC[C@]2(C(=O)OC)CC[C@]3(C)[C@H](CC[C@@H]4[C@@]5(C)CC[C@H](O)C(C)(C)[C@@H]5CC[C@]43C)[C@@H]12 [Compound 5, Methyl betulinate] | – | – | – | – | IC50 (NTCP [1]; [3]): 12.7 to 83.5 µM; IC50 (NTCP [2]; read-out: IC50 ([3H]TC uptake)): 47.1 to 100 µM |
| C=C(C)C1CCC2(C=NO)CCC3(C)C(CCC4C5(C)CCC(O)C(C)(C)C5CCC43C)C12 (centres unmarked) [Compound 6, Betulinaldehyde oxime] | 360 to 759 | 6.61 to 18.3 | 11 µM | 48 | – |
| C=C(C)[C@@H]1CC[C@]2(COC(=O)CBr)CC[C@]3(C)[C@H](CC[C@@H]4[C@@]5(C)CC[C@H](O)C(C)(C)[C@@H]5CC[C@]43C)[C@@H]12 [Compound 7, 28-O-(Bromoacetyl)betulin] | 63.5 to 126 | 5.28 to 11.1 | – | 11 | – |
| C=C(C)[C@@H]1CC[C@]2(COC(=O)CCC(=O)O)CC[C@]3(C)[C@H](CC[C@@H]4[C@@]5(C)CC[C@H](O)C(C)(C)[C@@H]5CC[C@]43C)[C@@H]12 [Compound 8, 28-O-Succinoylbetulin] | 5.35 to 10.6 | 1.61 to 4.11 | 2 to 3 µM | 3 | IC50 [3H]preS1 binding inhibition at pH 5.5 versus pH 7.4 (NTCP [1]; pH lowered from 7.4 to 5.5): did not change; IC50 (NTCP [2]; pH shift experiment, pH 5.5 (DMEM acidified with HCl), read-out: IC50 [3H]TC uptake inhibition at pH 5.5): 200 µM; IC50 (NTCP [2]; pH shift experiment, pH 7.4, read-out: IC50 [3H]TC uptake inhibition at pH 7.4): 8 µM |
| C=C(C)[C@@H]1CC[C@]2(COC(=O)CCC(=O)O)CC[C@]3(C)[C@H](CC[C@@H]4[C@@]5(C)CC[C@H](OC(=O)CCC(=O)O)C(C)(C)[C@@H]5CC[C@]43C)[C@@H]12 [Compound 9, 3,28-Di-O-succinoylbetulin] | 3.11 to 5.02 | 2.94 to 10.1 | < 10 µM | 1 | – |
| C=C(C)[C@@H]1CC[C@]2(COC(=O)CC(C)(C)CC(=O)O)CC[C@]3(C)[C@H](CC[C@@H]4[C@@]5(C)CC[C@H](O)C(C)(C)[C@@H]5CC[C@]43C)[C@@H]12 [Compound 10, 28-O-(3,3-Dimethylglutaroyl)betulin] | 3 to 5.91 | 2.48 to 7.02 | < 10 µM | 1 | – |
| C=C(C)[C@@H]1CC[C@]2(C(=O)O)CC[C@]3(C)[C@H](CC[C@@H]4[C@@]5(C)CC[C@H](OC(=O)CC(C)(C)CC(=O)O)C(C)(C)[C@@H]5CC[C@]43C)[C@@H]12 [Compound 11, 3-O-(3,3-Dimethylglutaroyl)betulinic acid] | 3.08 to 4.53 | 3 to 5.21 | – | 1 | – |
| C=C(C)[C@@H]1CC[C@]2(COC(=O)CC(C)(C)CC(=O)O)CC[C@]3(C)[C@H](CC[C@@H]4[C@@]5(C)CC[C@H](OC(=O)CC(C)(C)CC(=O)O)C(C)(C)[C@@H]5CC[C@]43C)[C@@H]12 [Compound 12, 3,28-Di-O-(3,3-dimethylglutaroyl)betulin] | 4.17 to 10.7 | 4.97 to 10.1 | – | 1 | – |
| C=C(C)[C@@H]1CC[C@]2(COC3CCCCO3)CC[C@]3(C)[C@H](CC[C@@H]4[C@@]5(C)CC[C@H](O)C(C)(C)[C@@H]5CC[C@]43C)[C@@H]12 (some centres unmarked) [Compound 13, 28-(Tetrahydro-2H-pyran-2-yl)betulin] | 116 to 628 | 9.34 to 19.5 | 11 to 50 µM | 19 | – |
| C=C(C)[C@@H]1CC[C@]2(COC(=O)c3cccnc3)CC[C@]3(C)[C@H](CC[C@@H]4[C@@]5(C)CC[C@H](O)C(C)(C)[C@@H]5CC[C@]43C)[C@@H]12 [Compound 14, 28-O-Nicotinoylbetulin] | 185 to 532 | 36.5 to 109 | – | 5 | – |
| C=C(C)[C@@H]1CC[C@]2(COC(=O)/C=C/c3ccccc3)CC[C@]3(C)[C@H](CC[C@@H]4[C@@]5(C)CC[C@H](O)C(C)(C)[C@@H]5CC[C@]43C)[C@@H]12 [Compound 15, 28-O-Cinnamoylbetulin] | 72.4 to 236 | 10.9 to 31.8 | – | 7 | – |
| C=C(C)[C@@H]1CC[C@]2(COC(=O)CCc3ccccc3)CC[C@]3(C)[C@H](CC[C@@H]4[C@@]5(C)CC[C@H](OC(=O)CCc6ccccc6)C(C)(C)[C@@H]5CC[C@]43C)[C@@H]12 [Compound 16, 3,28-Di-O-(dihydrocinnamoyl)betulin] | 176 to 1230 | 24.8 to 229 | – | 6 | – |
| C=C(C)[C@@H]1CC[C@]2(C=O)CC[C@]3(C)[C@H](CC[C@@H]4[C@@]5(C)CCC(=O)C(C)(C)[C@@H]5CC[C@]43C)[C@@H]12 [Compound 18, Betulonaldehyde] | 88.5 to 175 | – | – | – | – |
| C=C(C)[C@@H]1CC[C@]2(C(=O)O)CC[C@]3(C)[C@H](CC[C@@H]4[C@@]5(C)CC[C@H](OC(C)=O)C(C)(C)[C@@H]5CC[C@]43C)[C@@H]12 [Compound 21, 3-O-Acetylbetulinic acid] | 7.19 to 30.3 | 1.81 to 5.31 | 2 to 3 µM and < 10 µM | 5 | – |
| C=C(C)[C@@H]1CC[C@]2(CO)CC[C@]3(C)[C@H](CC[C@@H]4[C@@]5(C)CC[C@H](OC(C)=O)C(C)(C)[C@@H]5CC[C@]43C)[C@@H]12 [Compound 22, 3-O-Acetylbetulin] | 36.5 to 152 | 20.6 to 87.4 | – | 2 | – |
| C=C(C)[C@@H]1CC[C@]2(COC3CCCCO3)CC[C@]3(C)[C@H](CC[C@@H]4[C@@]5(C)CC[C@H](OC(C)=O)C(C)(C)[C@@H]5CC[C@]43C)[C@@H]12 (some centres unmarked) [Compound 23, 3-O-Acetyl-28-(tetrahydro-2H-pyran-2-yl)betulin] | 119 to 947 | 11 to 114 | – | 10 | – |
| C=C(C)C1CCC2(COC(C)=O)CCC3(C)C(CCC4C5(C)CCC(OC(C)=O)C(C)(C)C5CCC43C)C12 (centres unmarked) [Compound 24, 3,28-Di-O-acetylbetulin] | > 1000 | 52.6 to 756 | 199 µM | > 5 | [3H]TC transport inhibition (in words) (NTCP [2]; NTCP-HEK293 cells): no transport inhibition at all; IC50 (NTCP [2]; [7]): > 1000 µM |
| C=C(CO)C1CCC2(COC(C)=O)CCC3(C)C(CCC4C5(C)CCC(OC(C)=O)C(C)(C)C5CCC43C)C12 (centres unmarked) [Compound 25, 3,28-Di-O-acetyl-29-hydroxybetulin] | > 1000 | 5.29 to 13 | < 10 µM and 8 µM | – | [3H]TC transport inhibition (in words) (NTCP [2]; NTCP-HEK293 cells): no transport inhibition at all; IC50 (NTCP [2]; [7]): > 1000 µM |
| CC(=O)OC[C@]12CC[C@@H](C3(C)CO3)[C@@H]1[C@H]1CC[C@@H]3[C@@]4(C)CC[C@H](OC(C)=O)C(C)(C)[C@@H]4CC[C@@]3(C)[C@]1(C)CC2 (some centres unmarked) [Compound 26, 3,28-Di-O-acetyl-20,30-epoxybetulin] | 332 to 891 | 26.5 to 73 | – | 12 | – |
| C=C(C)C1CCC2(CO)CCC3(C)C(CCC4C5(C)CCC(OC(=O)C=Cc6ccc(O)c(O)c6)C(C)(C)C5CCC43C)C12 (centres unmarked) [Compound 27, 3-O-Caffeoylbetulin] | 85 to 195 | 3.35 to 10 | 6 µM | 22 | – |
| CC(=O)OC[C@]12CCC(C(C)C)=C1[C@H]1CC[C@@H]3[C@@]4(C)CC[C@H](OC(C)=O)C(C)(C)[C@@H]4CC[C@@]3(C)[C@]1(C)CC2 [Compound 28, 3,28-Di-O-acetyl-18,19-dehydro-20,29-dihydrobetulin] | > 1000 | 30 to 133 | – | > 16 | [3H]TC transport inhibition (in words) (NTCP [2]; NTCP-HEK293 cells): no transport inhibition at all; IC50 (NTCP [2]; [7]): > 1000 µM |
| CC1(C)CC[C@]23CC[C@]4(C)[C@H](CC[C@@H]5[C@@]6(C)CC[C@H](O)C(C)(C)[C@@H]6CC[C@]54C)[C@H]2[C@H]1OC3 [Compound 29, Allobetulin] | – | – | – | – | IC50 (NTCP [1]; [3]): 9.67 to 20.8 µM; IC50 (NTCP [2]; read-out: IC50 ([3H]TC uptake)): 212 to 675 µM |
| CC1(COc2ccc(CC3SC(=O)NC3=O)cc2)CCCCC1 (centres unmarked) [ciglitazone, reference compound] | – | – | 1.3 µM | – | – |
